Assay results published in ChEMBL document CHEMBL1201862, “PubChem BioAssay data set” (2004).
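96-well plates; 48 h exposure; 5 concentrations. Endpoints by linear interpolation between flanking doses. Not reached: highest tested concentration assigned. GI50 = concentration required for 50% inhibition of growth.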 Calls of active or inactive are those of the source. Cut-off read from the data, not from the text of the source: active = GI50 up to about 1.1 µM and inactive = higher.

Key:
Experiment in all cases: inhibition of tumour cell growth, NCI panel, 48 h
[1] = test system: SF-539
[2] = test system: SK-MEL-28
[3] = test system: U-251
[4] = test system: SNB-19
[5] = test system: SK-OV-3
[6] = test system: NCI-H522
[7] = test system: HT-29
[8] = test system: SF-295
[9] = test system: RXF 393
[10] = test system: ACHN
[11] = test system: COLO 205
[12] = test system: K562
[13] = test system: XF498
[14] = test system: HOP-62
[15] = test system: OVCAR-8
[16] = test system: M19-MEL
[17] = test system: SNB-75
[18] = test system: KM-20L2
[19] = test system: SNB-78
[20] = test system: A549
[21] = test system: HOP-18
[22] = test system: OVCAR-4
[23] = test system: IGROV-1
[24] = test system: SK-MEL-5
[25] = test system: MOLT-4
[26] = test system: NCI-H226
[27] = test system: HCT-116
[28] = test system: DMS-273
[29] = test system: RPMI-8226
[30] = test system: HCT-15
[31] = test system: Malme-3M
[32] = test system: HCC 2998
[33] = test system: NCI-H23
[34] = test system: DMS-114
[35] = test system: 786-0
[36] = test system: UACC-257
[37] = test system: SW-620
[38] = test system: HOP-92
[39] = test system: DLD-1
[40] = test system: EKVX
[41] = test system: M14
[42] = test system: LXFL 529
[43] = test system: UO-31
[44] = test system: SR
[45] = test system: SN12C
[46] = test system: CCRF-CEM
[47] = test system: UACC-62
[48] = test system: HL-60
[49] = test system: SF-268
[50] = test system: A498
[51] = test system: NCI-H460
[52] = test system: LOX IMVI
[53] = test system: RXF 631
[54] = test system: SK-MEL-2
[55] = test system: CAKI-1
[56] = test system: KM12
[57] = test system: OVCAR-3
[58] = test system: TK-10
[59] = test system: OVCAR-5

For `COc1ccc(/C(Cl)=C/c2ccc(Cl)c(Cl)c2)cc1`, the GI50 [1] was 43.7 µM (inactive), the GI50 [2] was 38.2 µM (inactive) and the GI50 [3] was 21.5 µM (inactive). The GI50 [4] was 63.4 µM (inactive), the GI50 [5] was 37.8 µM (inactive) and the GI50 [6] was 16.3 µM (inactive). For the same molecule, the GI50 [7] was 18.3 µM (inactive), the GI50 [8] was 23.7 µM (inactive) and the GI50 [9] was 15.2 µM (inactive). The GI50 [10] was 24.8 µM (inactive), the GI50 [11] was 22.1 µM (inactive) and the GI50 [12] was 35.1 µM (inactive). For the same molecule, the GI50 [13] was 22.4 µM (inactive), the GI50 [14] was 27.5 µM (inactive) and the GI50 [15] was 29.1 µM (inactive). The GI50 [16] was 30.6 µM (inactive), the GI50 [17] was 28.5 µM (inactive) and the GI50 [18] was 22.8 µM (inactive). For the same molecule, the GI50 [19] was 23.6 µM (inactive), the GI50 [20] was 22.4 µM (inactive) and the GI50 [21] was 16.5 µM (inactive). For the same molecule, the GI50 [22] was 41.5 µM (inactive), the GI50 [23] was 38.1 µM (inactive) and the GI50 [24] was 18 µM (inactive). For the same molecule, the GI50 [25] was 16.2 µM (inactive), the GI50 [26] was 14.9 µM (inactive) and the GI50 [27] was 22.7 µM (inactive). The GI50 [28] was 24.4 µM (inactive), the GI50 [29] was 18.2 µM (inactive) and the GI50 [30] was 23.1 µM. The GI50 [31] was 20.9 µM (inactive), the GI50 [32] was 19.8 µM (inactive) and the GI50 [33] was 19 µM (inactive). The GI50 [34] was 16.6 µM (inactive), the GI50 [35] was 32.5 µM (inactive) and the GI50 [36] was 24.3 µM (inactive). The GI50 [37] was 43.2 µM (inactive), the GI50 [38] was 30.1 µM (inactive) and the GI50 [39] was 25.9 µM (inactive). For the same molecule, the GI50 [40] was 20.2 µM (inactive), the GI50 [41] was 33.2 µM (inactive) and the GI50 [42] was 33.8 µM (inactive). The GI50 [43] was 26.5 µM (inactive), the GI50 [44] was 18.9 µM (inactive) and the GI50 [45] was 29.4 µM (inactive). For the same molecule, the GI50 [46] was 21.9 µM (inactive), the GI50 [47] was 24.3 µM (inactive) and the GI50 [48] was 17.3 µM (inactive). The GI50 [49] was 35.5 µM (inactive) and the GI50 [50] was 24.9 µM (inactive).

With `Cc1nc2ccc(N)cc2nc1O` the GI50 [1] was > 100 µM (inactive), the GI50 [51] was > 100 µM (inactive) and the GI50 [52] was > 100 µM (inactive). For the same molecule, the GI50 [3] was > 100 µM (inactive), the GI50 [4] was > 100 µM (inactive) and the GI50 [5] was > 100 µM (inactive). For the same molecule, the GI50 [53] was > 100 µM (inactive), the GI50 [8] was > 100 µM (inactive) and the GI50 [10] was > 100 µM (inactive). The GI50 [11] was > 100 µM (inactive), the GI50 [12] was > 100 µM (inactive) and the GI50 [14] was > 100 µM (inactive). For the same molecule, the GI50 [15] was > 100 µM (inactive), the GI50 [16] was > 100 µM (inactive) and the GI50 [54] was > 100 µM (inactive). For the same molecule, the GI50 [18] was > 100 µM (inactive), the GI50 [19] was > 100 µM (inactive) and the GI50 [20] was > 100 µM (inactive). For the same molecule, the GI50 [22] was > 100 µM (inactive), the GI50 [55] was > 100 µM (inactive) and the GI50 [23] was > 100 µM (inactive). For the same molecule, the GI50 [24] was > 100 µM (inactive), the GI50 [25] was > 100 µM (inactive) and the GI50 [27] was > 100 µM (inactive). The GI50 [28] was > 100 µM (inactive), the GI50 [29] was > 100 µM (inactive) and the GI50 [30] was greater than 100 µM. For the same molecule, the GI50 [56] was > 100 µM (inactive), the GI50 [31] was > 100 µM (inactive) and the GI50 [32] was > 100 µM (inactive). The GI50 [35] was > 100 µM (inactive), the GI50 [57] was > 100 µM (inactive) and the GI50 [58] was > 100 µM (inactive). For the same molecule, the GI50 [36] was > 100 µM (inactive), the GI50 [37] was > 100 µM (inactive) and the GI50 [38] was 5.89 µM (inactive). For the same molecule, the GI50 [39] was > 100 µM (inactive), the GI50 [40] was > 100 µM (inactive) and the GI50 [41] was > 100 µM (inactive). For the same molecule, the GI50 [42] was > 100 µM (inactive), the GI50 [43] was > 100 µM (inactive) and the GI50 [59] was > 100 µM (inactive). For the same molecule, the GI50 [46] was > 100 µM (inactive), the GI50 [47] was > 100 µM (inactive) and the GI50 [48] was > 100 µM (inactive). For the same molecule, the GI50 [50] was > 100 µM (inactive).
